# Experimental data: ChEMBL document CHEMBL3885881, “DrugMatrix”
# Organism: Rattus norvegicus
# Test: DrugMatrix - Regimen: Daily Repeat
# Type: toxicity, organism-based, Sprague-Dawley
# Parameters: regimen Daily Repeat, gender Male, age 6-8 weeks
# Conditions: in vivo, po, route oral GAVAGE, vehicle .5 % CMC; for ABSOLUTE BASOPHIL / ABSOLUTE EOSINOPHIL / ABSOLUTE LYMPHOCYTE / ABSOLUTE MONOCYTE / ABSOLUTE SEGMENTED NEUTROPHIL / BASOPHIL / EOSINOPHIL / ERYTHROCYTE COUNT / HEMATOCRIT / HEMOGLOBIN / LEUKOCYTE COUNT / LYMPHOCYTE / MEAN CORPUSCULAR HEMOGLOBIN / MEAN CORPUSCULAR HEMOGLOBIN CONCENTRATION / MEAN CORPUSCULAR VOLUME / MONOCYTE / NEUTROPHIL / NUCLEATED RED BLOOD CELLS / PLATELET COUNT: tissue Blood; for ALANINE AMINOTRANSFERASE / ALBUMIN / ALKALINE PHOSPHATASE / ASPARTATE AMINOTRANSFERASE / BLOOD UREA NITROGEN / CARBON DIOXIDE / CHLORIDE / CHOLESTEROL / CREATINE PHOSPHOKINASE / CREATININE / GLUCOSE / LACTATE DEHYDROGENASE / LIPASE / PHOSPHORUS / POTASSIUM / SODIUM / TOTAL BILIRUBIN / TOTAL PROTEIN / URIC ACID: tissue Plasma
# [1] = 100 mg/kg, 120 h, dose level Low, time 5 day
# [2] = 2500 mg/kg, 72 h, dose level High, time 3 day
# [3] = 2500 mg/kg, 120 h, dose level High, time 5 day
compound,measurement,setting,value
NC(=O)CN1CCCC1=O,ABSOLUTE BASOPHIL,[1],0 CELLS/uL
same,ABSOLUTE EOSINOPHIL,[1],42 CELLS/uL
same,ABSOLUTE LYMPHOCYTE,[1],9826.67 CELLS/uL
same,ABSOLUTE MONOCYTE,[1],141.33 CELLS/uL
same,ABSOLUTE SEGMENTED NEUTROPHIL,[1],823.33 CELLS/uL
same,BASOPHIL,[1],0%
same,EOSINOPHIL,[1],0.33%
same,ERYTHROCYTE COUNT,[1],5.31 x10E6/uL
same,HEMATOCRIT,[1],34.1%
same,HEMOGLOBIN,[1],13.87 G/DL
same,LEUKOCYTE COUNT,[1],10.83 x10E3/uL
same,LYMPHOCYTE,[1],90.67%
same,MEAN CORPUSCULAR HEMOGLOBIN,[1],26.1 pg
same,MEAN CORPUSCULAR HEMOGLOBIN CONCENTRATION,[1],40.7 G/DL
same,MEAN CORPUSCULAR VOLUME,[1],64.2 fL
same,MONOCYTE,[1],1.33%
same,NEUTROPHIL,[1],7.67%
same,NUCLEATED RED BLOOD CELLS,[1],0 /100WBC
same,PLATELET COUNT,[1],1439.67 x10E3/uL
same,ALANINE AMINOTRANSFERASE,[1],57.33 u/L
same,ALBUMIN,[1],4.37 G/DL
same,ALKALINE PHOSPHATASE,[1],345.67 u/L
same,ASPARTATE AMINOTRANSFERASE,[1],81.33 u/L
same,BLOOD UREA NITROGEN,[1],14 mg/dL
same,CARBON DIOXIDE,[1],31 mmol/L
same,CHLORIDE,[1],101.33 MEQ/L
same,CHOLESTEROL,[1],79 mg/dL
same,CREATINE PHOSPHOKINASE,[1],221.33 u/L
same,CREATININE,[1],0.2 mg/dL
same,GLUCOSE,[1],137.33 mg/dL
same,LACTATE DEHYDROGENASE,[1],190.33 u/L
same,LIPASE,[1],10 u/L
same,PHOSPHORUS,[1],12 mg/dL
same,POTASSIUM,[1],6.54 MEQ/L
same,SODIUM,[1],144.03 MEQ/L
same,TOTAL BILIRUBIN,[1],0.23 mg/dL
same,TOTAL PROTEIN,[1],6.17 G/DL
same,URIC ACID,[1],1.2 mg/dL
same,ABSOLUTE BASOPHIL,[2],0 CELLS/uL
same,ABSOLUTE EOSINOPHIL,[2],0 CELLS/uL
same,ABSOLUTE LYMPHOCYTE,[2],13503 CELLS/uL
same,ABSOLUTE MONOCYTE,[2],41.67 CELLS/uL
same,ABSOLUTE SEGMENTED NEUTROPHIL,[2],1822 CELLS/uL
same,BASOPHIL,[2],0%
same,EOSINOPHIL,[2],0%
same,ERYTHROCYTE COUNT,[2],5.25 x10E6/uL
same,HEMATOCRIT,[2],34.27%
same,HEMOGLOBIN,[2],13.27 G/DL
same,LEUKOCYTE COUNT,[2],15.37 x10E3/uL
same,LYMPHOCYTE,[2],88.33%
same,MEAN CORPUSCULAR HEMOGLOBIN,[2],25.33 pg
same,MEAN CORPUSCULAR HEMOGLOBIN CONCENTRATION,[2],38.77 G/DL
same,MEAN CORPUSCULAR VOLUME,[2],65.3 fL
same,MONOCYTE,[2],0.33%
same,NEUTROPHIL,[2],11.33%
same,NUCLEATED RED BLOOD CELLS,[2],0 /100WBC
same,PLATELET COUNT,[2],1334.33 x10E3/uL
same,ALANINE AMINOTRANSFERASE,[2],49 u/L
same,ALBUMIN,[2],3.97 G/DL
same,ALKALINE PHOSPHATASE,[2],347.33 u/L
same,ASPARTATE AMINOTRANSFERASE,[2],74 u/L
same,BLOOD UREA NITROGEN,[2],20.67 mg/dL
same,CARBON DIOXIDE,[2],31 mmol/L
same,CHLORIDE,[2],102.67 MEQ/L
same,CHOLESTEROL,[2],67.67 mg/dL
same,CREATINE PHOSPHOKINASE,[2],351.33 u/L
same,CREATININE,[2],0.18 mg/dL
same,GLUCOSE,[2],147.33 mg/dL
same,LACTATE DEHYDROGENASE,[2],239 u/L
same,LIPASE,[2],9.67 u/L
same,PHOSPHORUS,[2],12.57 mg/dL
same,POTASSIUM,[2],6.21 MEQ/L
same,SODIUM,[2],146 MEQ/L
same,TOTAL BILIRUBIN,[2],0.2 mg/dL
same,TOTAL PROTEIN,[2],5.7 G/DL
same,URIC ACID,[2],1.4 mg/dL
same,ABSOLUTE BASOPHIL,[3],0 CELLS/uL
same,ABSOLUTE EOSINOPHIL,[3],37.33 CELLS/uL
same,ABSOLUTE LYMPHOCYTE,[3],8603 CELLS/uL
same,ABSOLUTE MONOCYTE,[3],37.33 CELLS/uL
same,ABSOLUTE SEGMENTED NEUTROPHIL,[3],1055.67 CELLS/uL
same,BASOPHIL,[3],0%
same,EOSINOPHIL,[3],0.33%
same,ERYTHROCYTE COUNT,[3],5.53 x10E6/uL
same,HEMATOCRIT,[3],34.87%
same,HEMOGLOBIN,[3],14.13 G/DL
same,LEUKOCYTE COUNT,[3],9.73 x10E3/uL
same,LYMPHOCYTE,[3],88.67%
same,MEAN CORPUSCULAR HEMOGLOBIN,[3],25.6 pg
same,MEAN CORPUSCULAR HEMOGLOBIN CONCENTRATION,[3],40.53 G/DL
same,MEAN CORPUSCULAR VOLUME,[3],63.17 fL
same,MONOCYTE,[3],0.33%
same,NEUTROPHIL,[3],10.67%
same,NUCLEATED RED BLOOD CELLS,[3],0 /100WBC
same,PLATELET COUNT,[3],1291.33 x10E3/uL
same,ALANINE AMINOTRANSFERASE,[3],61.33 u/L
same,ALBUMIN,[3],4.27 G/DL
same,ALKALINE PHOSPHATASE,[3],359.33 u/L
same,ASPARTATE AMINOTRANSFERASE,[3],86.33 u/L
same,BLOOD UREA NITROGEN,[3],18.33 mg/dL
same,CARBON DIOXIDE,[3],28.67 mmol/L
same,CHLORIDE,[3],101.67 MEQ/L
same,CHOLESTEROL,[3],64 mg/dL
same,CREATINE PHOSPHOKINASE,[3],310 u/L
same,CREATININE,[3],0.16 mg/dL
same,GLUCOSE,[3],160.33 mg/dL
same,LACTATE DEHYDROGENASE,[3],149.33 u/L
same,LIPASE,[3],7.33 u/L
same,PHOSPHORUS,[3],12.07 mg/dL
same,POTASSIUM,[3],5.7 MEQ/L
same,SODIUM,[3],146.23 MEQ/L
same,TOTAL BILIRUBIN,[3],0.17 mg/dL
same,TOTAL PROTEIN,[3],6.17 G/DL
same,URIC ACID,[3],1.67 mg/dL
